From patent US20080096770A1, “Evaluation of the Toxicity of Pharmaceutical Agents” (priority 2004, published 2008)
Where two headings read alike, the source gives them in different places.

What was measured:
Format in all cases: cell-based
[1] = tested on: TK6 human lymphoblastoid cells; experiment: Microarray gene expression profiling with PLS-DA / KNN discrimination of cytotoxic versus genotoxic compounds (Examples 1-7); conditions: 24 h
Method: Total RNA was isolated after 24 hours of treatment with the agents or control using Qiagen's (Hilden, Germany) RNeasy Mini Kits. Samples were made up of 10 ml TK6 cell suspensions with an approximate cell density of 0.3×10^6 cells/ml. Column-purified RNA was eluted with 40 μl water and quality-checked by UV spectrometry and Agilent's “lab-on-a-chip” technology (RNA nano chip, Bioanalyzer 2100, Agilent Technologies, Santa Clara, Calif.). RNA extraction and purification is described by the manufacturer of the GeneChip system.
Purified total human TK6 RNA was analyzed using the human specific Human Genome U133, 2.0 array (Affymetrix). […] Sequences used in the design of the array were selected from GenBank®, dbEST, and RefSeq.
The resulting primary raw data, the image files (.dat files), were processed using the Microarray Analysis Suite 5 (MAS5) software (Affymetrix). Tab-delimited files were obtained containing data regarding signal intensity (Signal) and categorical expression level measurement (Absolute Call).
The raw data obtained from the GeneChip by MAS5 were imported to GeneSpring 7.2 for analysis. Data were normalized per chip and per gene to the respective median. Genes were annotated according to LocusLink nomenclature (http://www.ncbi.nlm.nih.gov/LocusLink/).
Filtering of the data was performed according to following criteria for each gene:
Fold-change refers to the ratio of genotoxic versus cytotoxic. Since these studies seek robust predictor genes the limit ratios (1.4 and 0.7) were selected in order to excluded genes that show consistent but only small differences. […]
PLS-DA was applied iteratively to the gene expression data with cyto- and genotcoxicity as class variables. […] The final model was validated by response permutation; i.e. the class membership of each sample was randomly attributed, evaluated by the model and contrasted to the solution of the model with the original class membership. […]

[2] = tested on: TK6 human lymphoblastoid cells; experiment: Alamar Blue cytotoxicity assay (metabolic cell activity); conditions: measured at 21 hours, at the optimized cytotoxic concentration (Table 1), aim 40-60% viability decrease
Method: (§1) The human lymphoblastoid cell line TK6 (ATCC, Manassas, Va.) was cultured in RPMI 1640 medium (with Glutamax and 10% FHS) at a cell density of 0.2×10^5 to 10×10^5 cells/ml. Cells were routinely subcultured starting from frozen aliquots after […]. For experiments, passage numbers between 3 to 15 were used.
(§2) Cytotoxic concentrations were determined either by measuring cell density on a Sysmex Cell Counter (Sysmex America, Inc., Mundelein, Ill.) or by metabolic cell activity using the Alamar Blue (Serotec Inc., Raleigh, N.C.) cytotoxicity assay. Alamar Blue indicator dye quantitatively measures proliferation in human and other cells. Alamar Blue is a sensitive fluorimetric and calorimetric reagent sensitive to the redox state of the growth medium. Cell density by Sysmex was measured after the 24 h treatment. Cytotoxicity by Alamar Blue was measured 3 hours prior to end of treatment, i.e., at 21 hours. 200 III of cell suspension were mixed with 20 μl of Alamar Blue reagent in a 96-well plate and measured once/hour using a fluorescence plate reader with 544 nm excitation and 612 nm emission filters. Cell suspension samples from the cytotoxicity dilution series were analyzed for cytometry endpoints by Laser Scanning Cytometry.
(§3) TK6 human lymphoblastoid cells were exposed to following treatments (24 hours, 0.15×10^6 cells/ml):
(§4) The six model compounds identified in Table 1 were applied in a dilution series to TK6 cells. The resulting dilution series for each of the six compounds provided individually optimized cytotoxic concentrations for 50% cell death (EC50) as determined by cell density and the Alamar Blue assay. It is possible that cell density and the Alamar Blue assay may not give identical cytotoxicity profiles. Thus, concentrations of the compounds were optimized with the objective to have both cytotoxicity parameters within the range of 40-60% viability decrease. In addition, for representative dilution series several cytometry endpoints were analyzed (BrdU incorporation, KI-67 staining (Histogenex, Edegem, Belgium), propidium iodide staining), although these parameters were not used for concentration selection.

[3] = tested on: TK6 human lymphoblastoid cells; conditions: for Cell Density (±S.D.): 24 h treatment at the optimized cytotoxic concentration (Table 1), aim 40-60% viability decrease; for EC50: 24 h dilution series, determined by cell density and the Alamar Blue assay, read-out: approximated EC50 (cytotoxic concentration for 50% cell death; equicytotoxic concentration)
Method: as §1, §2, §3
Dose-response determination to provide the doses given in column 4 of Table 1 was carried out with an initial cell density of 0.15×10^6 cells/ml (see Example 1).
as §4

[4] = tested on: TK6 human lymphoblastoid cells; conditions: dilution series up to or around the EC50 values (FIG. 1)
Method: FIG. 1. Graphical representation of the percentage of cells in G2 phase as a function of dilution of the indicated genotoxic and nongenotoxic compounds (points 1-9), with control samples at points 10-12. An original color image has been converted to grayscale by computer.
as §2
The six model compounds identified in Table 1 were applied in a dilution series to TK6 cells. […]

[5] = TK6 cells, equicytotoxic concentrations, cytotoxic samples above or at 0, genotoxic samples below 0

SMILES	scores of first component t[1] of PLS-DA with all 215 genes (FIG. 4) ([1]; human)	Alamar Blue (±S.D.) [2]	Cell Density (±S.D.) [3]	scores of first component t[1] of PLS-DA with all 215 genes (FIG. 4) [1, 5]	shifts in cell cycle parameters / G2 phase block [4]	EC50 [3]	EC50 ([3]; listed as tPt)
COS(C)(=O)=O [Methyl methanesulfonate]	below t[1]=0	43 ± 8%	44 ± 2%	–	–	–	–
CO[C@@]12[C@H](COC(N)=O)C3=C(C(=O)C(C)=C(N)C3=O)N1C[C@@H]1N[C@@H]12 [Mitomycin C]	–	48 ± 1%	53 ± 3%	–	–	–	–
[Cl-].[Na+] [NaCl]	–	65 ± 5%	30 ± 4%	above or at t[1]=0	no significant shifts in cell cycle parameters	–	–
CO[C@H]1/C=C/O[C@@]2(C)Oc3c(C)c(O)c4c(O)c(c(/C=N/N5CCN(C)CC5)c(O)c4c3C2=O)NC(=O)/C(C)=C\C=C\[C@H](C)[C@H](O)[C@@H](C)[C@@H](O)[C@@H](C)[C@H](OC(C)=O)[C@@H]1C [Rifampicin]	–	61 ± 8%	52 ± 9%	above or at t[1]=0	no significant shifts in cell cycle parameters	–	–
N.N.[Cl][Pt][Cl] [cis-Platinum, cis-diammineplatinum(II) dichloride]	–	46 ± 5%	53 ± 4%	–	–	1.3 µM	–
N.N.[Cl][Pt][Cl] [trans-Platinum, trans-diammineplatinum(II) dichloride]	–	36 ± 13%	58 ± 7%	–	–	–	33 µM
